Experimental data from patent publication US20240041042A1, “1-(PYRIDYL)-5-AZINYLPYRAZOLE DERIVATIVES, AND THEIR USE FOR CONTROL OF UNDESIRED PLANT GROWTH” (Bayer Aktiengesellschaft, priority 2020, published 2024).
Where two headings read alike, the source gives them in different places.

Key:
Format in all cases: in vivo
Avena fatua (AVEFA) [1] = test: Post-emergence herbicidal action against AVEFA; settings: visual rating about 3 weeks after treatment
Method in brief: (§1)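 Values are percent visual activity (0% like control, 100% plants dead) after about 3 weeks in the greenhouse. Treatment: post-emergence spray at one-leaf stage, 600 l/ha spray volume, 0.5% additive, doses 320 g/ha or lower.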

[2] = tested on: Pharbitis purpurea (PHBPU); test: Post-emergence herbicidal action against PHBPU
Method in brief: as §1

[3] = tested on: Digitaria sanguinalis (DIGSA); test: Pre-emergence herbicidal action against DIGSA
Method in brief: (§2)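 Pre-emergence soil-surface spray, WP/EC formulation, 0.5% additive, 600 l/ha water, rates of 320 g/ha or lower. Greenhouse, ~3 wk. Visual score, % of untreated control (100% = plants dead, 0% = like control).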

[4] = tested on: Alopecurus myosuroides (ALOMY); test: Pre-emergence herbicidal action against ALOMY; settings: scored visually after about 3 weeks, 100% = plants have died
Method in brief: as §2

[5] = tested on: Polygonum convolvulus (POLCO); test: Pre-emergence herbicidal action against POLCO
Method in brief: as §2

Zea mays (ZEAMX) [6] = settings: pre-emergence, 80 g/ha, crop plant compatibility, in comparison to untreated controls
Method in brief: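 Crop injury rated visually in percent against untreated plants roughly 3 weeks after treatment (0% no effect, 100% plants dead). Compounds, as WP or EC with 0.5% additive in 600 l/ha water, were applied to the covering soil right after sowing; greenhouse growth. Suffixes a, b, c denote different dosages.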

[7] = tested on: Matricaria inodora (MATIN); test: Post-emergence herbicidal action against MATIN; settings: dosage 320 g/ha
Method in brief: as §1

[8] = tested on: Polygonum convolvulus (POLCO); test: Post-emergence herbicidal action against POLCO
Method in brief: as §1

Viola tricolor (VIOTR) [9] = test: Pre-emergence herbicidal action against VIOTR
Method in brief: as §2

Lolium rigidum (LOLRI) [10] = test: Post-emergence herbicidal action against LOLRI
Method in brief: as §1

[11] = tested on: Echinochloa crus-galli (ECHCG); test: Pre-emergence herbicidal action against ECHCG; settings: dosage 320 g/ha
Method in brief: as §2

Viola tricolor (VIOTR) [12] = test: Post-emergence herbicidal action against VIOTR
Method in brief: as §1

Lolium rigidum (LOLRI) [13] = test: Pre-emergence herbicidal action against LOLRI
Method in brief: as §2

[14] = tested on: Amaranthus retroflexus (AMARE); test: Pre-emergence herbicidal action against AMARE; settings: visual scoring after about 3 weeks vs untreated controls
Method in brief: as §2

[15] = tested on: Pharbitis purpurea (PHBPU); test: Pre-emergence herbicidal action against PHBPU; settings: dosage 320 g/ha
Method in brief: as §2

[16] = tested on: Echinochloa crus-galli (ECHCG); test: Post-emergence herbicidal action against ECHCG
Method in brief: as §1

Oryza sativa (ORYSA) = settings: crop plant compatibility
Method in brief: (§3)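 Effects were read visually as % versus untreated controls (0% = no effect, 100% = death) about 3 weeks post-treatment. Application was a post-emergence spray at the one-leaf stage of WP/EC formulations with 0.5% additive at 600 l/ha. Different dosages are denoted a, b and c.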

Setaria viridis (SETVI) [17] = test: Post-emergence herbicidal action against SETVI
Method in brief: as §1

[18] = tested on: Digitaria sanguinalis (DIGSA); test: Post-emergence herbicidal action against DIGSA; settings: visual rating about 3 weeks after treatment
Method in brief: as §1

[19] = tested on: Matricaria inodora (MATIN); test: Pre-emergence herbicidal action against MATIN; settings: dosage 320 g/ha
Method in brief: as §2

[20] = tested on: Alopecurus myosuroides (ALOMY); test: Post-emergence herbicidal action against ALOMY; settings: visual rating about 3 weeks after treatment vs untreated controls (100% = plants have died, 0% = like control plants)
Method in brief: as §1

[21] = tested on: Amaranthus retroflexus (AMARE); test: Post-emergence herbicidal action against AMARE
Method in brief: as §1

Avena fatua (AVEFA) [22] = test: Pre-emergence herbicidal action against AVEFA; settings: visual scoring after about 3 weeks vs untreated controls
Method in brief: as §2

Zea mays (ZEAMX) [23] = settings: 20 g/ha, ZEAMX, effect in comparison to untreated controls
Method in brief: as §3

[24] = tested on: Verconica persica (VERPE); test: Pre-emergence herbicidal action against VERPE; settings: dosage 320 g/ha
Method in brief: as §2

Setaria viridis (SETVI) [25] = test: Pre-emergence herbicidal action against SETVI
Method in brief: as §2

[26] = tested on: Abutilon theophrasti (ABUTH); test: Post-emergence herbicidal action against ABUTH; settings: 80 g/ha, visual rating about 3 weeks after treatment vs untreated controls (100% = plants have died, 0% = like control plants)
Method in brief: as §1

[27] = tested on: Verconica persica (VERPE); test: Post-emergence herbicidal action against VERPE
Method in brief: as §1

[28] = 80 g/ha, visual scoring after about 3 weeks vs untreated controls
[29] = 80 g/ha, effect in comparison to untreated controls
[30] = 320 g/ha, visual rating about 3 weeks after treatment
[31] = 80 g/ha, visual rating about 3 weeks after treatment vs untreated controls (100% = plants have died, 0% = like control plants)

Row | Structure (SMILES) | Post-emergence action against AVEFA in % (Avena fatua (AVEFA) [1]; 80 g/ha) [%] | Post-emergence action against PHBPU in % ([2]; dosage 320 g/ha) [%] | Pre-emergence action against DIGSA in % [3, 28] [%] | Pre-emergence action against DIGSA in % ([3]; dosage 320 g/ha) [%] | Pre-emergence action against ALOMY ([4]; 80 g/ha) [%] | Pre-emergence action against ALOMY ([4]; 320 g/ha) [%] | Pre-emergence action against POLCO in % ([5]; dosage 320 g/ha) [%] | Pre-emergence action against ZEAMX in % (Zea mays (ZEAMX) [6]) [%] | Post-emergence action against POLCO in % ([8]; dosage 80 g/ha) [%] | Post-emergence action against POLCO in % ([8]; dosage 320 g/ha) [%] | Pre-emergence action against VIOTR in % (Viola tricolor (VIOTR) [9]; 320 g/ha, Viola tricolor) [%] | Pre-emergence action against VIOTR in % (Viola tricolor (VIOTR) [9]; dosage 80 g/ha) [%] | Pre-emergence action against ECHCG in % [11] [%] | Post-emergence action against VIOTR in % (Viola tricolor (VIOTR) [12]; 80 g/ha) [%] | Pre-emergence action against LOLRI in % (Lolium rigidum (LOLRI) [13]; dosage 320 g/ha) [%] | Pre-emergence action against AMARE in % ([14]; 320 g/ha) [%] | Pre-emergence action against PHBPU in % [15] [%] | Post-emergence action against ORYSA in % (Oryza sativa (ORYSA); [29]) [%] | Pre-emergence action against MATIN in % [19] [%] | Pre-emergence action against AVEFA in % (Avena fatua (AVEFA) [22]; 320 g/ha) [%] | other results
1 | COC(=O)CCOC(=O)C(C)Oc1nn(-c2ccccn2)c(-c2ccc(F)nc2)c1C(F)(F)F (stereo not drawn) [Example I-293] | 80 | 80 | 80 | 100 | 90 | 100 | 80 | 20 | 80 | 80 | 100 | 80 | 90 | 80 | 100 | 100 | 80 | 0 | 80 | 90 | Post-emergence action against AVEFA in % (Avena fatua (AVEFA) [1]; 320 g/ha): 90%; Post-emergence action against MATIN in % [7]: 80%; Post-emergence action against LOLRI in % (Lolium rigidum (LOLRI) [10]; dosage 80 g/ha): 80%; Post-emergence action against LOLRI in % (Lolium rigidum (LOLRI) [10]; dosage 320 g/ha): 80%; Post-emergence action against VIOTR in % (Viola tricolor (VIOTR) [12]; 320 g/ha): 80%; Pre-emergence action against LOLRI in % (Lolium rigidum (LOLRI) [13]; dosage 80 g/ha): 100%; Post-emergence action against ECHCG in % ([16]; dosage 320 g/ha): 80%; Post-emergence action against SETVI in % (Setaria viridis (SETVI) [17]; dosage 320 g/ha): 80%; Post-emergence action against DIGSA in % ([18]; 320 g/ha): 80%; Post-emergence action against ALOMY in % ([20]; 80 g/ha): 90%; Post-emergence action against ALOMY in % ([20]; 320 g/ha): 90%; Post-emergence action against AMARE in % [21, 30]: 80%; Pre-emergence action against AVEFA in % (Avena fatua (AVEFA) [22]; 80 g/ha): 80%
2 | COC(=O)[C@@H](C)Oc1nn(-c2ccccn2)c(-c2ccnc(F)c2)c1Cl [Example I-19] | 90 | – | 100 | 100 | 100 | 100 | 100 | 0 | 90 | – | 100 | 100 | 100 | 90 | 100 | 100 | 90 | 0 | 90 | 100 | Post-emergence action against PHBPU in % ([2]; dosage 80 g/ha): 90%; Pre-emergence action against POLCO in % ([5]; dosage 80 g/ha): 90%; Post-emergence action against LOLRI in % (Lolium rigidum (LOLRI) [10]; dosage 80 g/ha): 80%; Pre-emergence action against AMARE in % ([14]; 80 g/ha): 100%; Post-emergence action against ZEAMX in % (crop plant compatibility) (Zea mays (ZEAMX) [23]): 0%; Post-emergence action against ORYSA in % (Oryza sativa (ORYSA); 20 g/ha, effect vs untreated controls): 0%; Pre-emergence action against VERPE in % [24]: 100%; Pre-emergence action against SETVI in % (Setaria viridis (SETVI) [25]; dosage 80 g/ha): 100%; Pre-emergence action against SETVI in % (Setaria viridis (SETVI) [25]; dosage 320 g/ha): 100%; Post-emergence action against ABUTH in % [26]: 80%; Post-emergence action against SETVI in % (Setaria viridis (SETVI) [17]; dosage 80 g/ha): 80%; Post-emergence action against DIGSA in % ([18]; 80 g/ha): 80%; Post-emergence action against ALOMY in % ([20]; 80 g/ha): 100%; Post-emergence action against AMARE in % [21, 31]: 80%; Pre-emergence action against AVEFA in % (Avena fatua (AVEFA) [22]; 80 g/ha): 80%
3 | COC(=O)CCOC(=O)COc1nn(-c2ccccn2)c(-c2ccc(F)nc2)c1Br [Example I-247] | – | 90 | 100 | 100 | 80 | 100 | 90 | 20 | 80 | 80 | – | – | 100 | 80 | 100 | 100 | 80 | 10 | 90 | 80 | Post-emergence action against PHBPU in % ([2]; dosage 80 g/ha): 90%; Post-emergence action against VERPE in % ([27]; 320 g/ha, VERPE): 80%; Post-emergence action against VERPE in % ([27]; dosage 80 g/ha): 80%; Post-emergence action against LOLRI in % (Lolium rigidum (LOLRI) [10]; dosage 320 g/ha): 80%; Post-emergence action against VIOTR in % (Viola tricolor (VIOTR) [12]; 320 g/ha): 80%; Pre-emergence action against AMARE in % ([14]; 80 g/ha): 80%; Post-emergence action against ECHCG in % ([16]; dosage 80 g/ha): 80%; Post-emergence action against ECHCG in % ([16]; dosage 320 g/ha): 80%; Pre-emergence action against VERPE in % [24]: 90%; Pre-emergence action against SETVI in % (Setaria viridis (SETVI) [25]; dosage 320 g/ha): 100%; Post-emergence action against SETVI in % (Setaria viridis (SETVI) [17]; dosage 320 g/ha): 80%; Post-emergence action against DIGSA in % ([18]; 80 g/ha): 80%; Post-emergence action against DIGSA in % ([18]; 320 g/ha): 80%; Post-emergence action against ALOMY in % ([20]; 320 g/ha): 80%; Post-emergence action against AMARE in % [21, 31]: 80%; Post-emergence action against AMARE in % [21, 30]: 80%
